Literature values, collected in PubChem BioAssay AID1259409 (Chemical Carcinogenesis Research Information System (CCRIS), 2018).

Tested on: rodent chemically induced tumor inhibition, incidence and multiplicity
Experiment: CCRIS tumor inhibitor studies

## CC1=C(/C=C/C(C)=C/C=C/C(C)=C/C(=O)Nc2ccc(O)cc2)C(C)(C)CCC1
Carcinogen: N-METHYL-N-NITROSOUREA, 684-93-5, Dose [Inhibitor]: 2 MMOL/KG DIET DAILY STARTING 12 D AFTER CARCINOGEN TREATMENT THROUGH ABOUT 8 MO AFTER CARCINOGEN DOSE (STUDY DURATION:, Route [Inhibitor]: ORAL, Species: RAT, Strain/Sex: F344/MALE, Target Tissue: Type of Lesion: COLON: ADENOMA, Dose [Carcinogen]: 2.5 MG 1/WK FOR 2 WK, Promoter: NONE USED
  tumour outcome (control, treated, inhibition, significance): 16/39 (41%), 11/30 (37%), 10%, not significant
Carcinogen: N-METHYL-N-NITROSOUREA, 684-93-5, Dose [Inhibitor]: 587 MG/KG DIET FROM D 7-20 AFTER CARCINOGEN ADMINISTRATION THEN REDUCED TO 391 MG/KG DIET FOR REMAINDER OF STUDY (STUDY, Route [Inhibitor]: ORAL, Species: RAT, Strain/Sex: SPRAGUE-DAWLEY/FEMALE, Target Tissue: Type of Lesion: MAMMARY GLAND: ADENOCARCINOMA, Dose [Carcinogen]: 20 MG/KG BW ONCE, Promoter: NONE USED
  tumour outcome (control, treated, inhibition, significance): 64%, 50%, 22%, not significant
Carcinogen: N-METHYL-N-NITROSOUREA, 684-93-5, Dose [Inhibitor]: 587 MG/KG IN DIET FROM D 7-20 AFTER CARCINOGEN DOSE THEN REDUCED TO 391 MG/KG IN DIET FOR REMAINDER OF STUDY (STUDY DURA, Route [Inhibitor]: ORAL, Species: RAT, Strain/Sex: SPRAGUE-DAWLEY/FEMALE, Target Tissue: Type of Lesion: MAMMARY GLAND: ADENOCARCINOMA, Dose [Carcinogen]: 20 MG/KG BW ONCE, Promoter: NONE USED
  tumour outcome (control, treated, inhibition, significance): 64%, 50%, 22%, not significant
Carcinogen: N-METHYL-N-NITROSOUREA, 684-93-5, Dose [Inhibitor]: O.O3 MMOL 3/WK STARTING 12 D THROUGH ABOUT 8 MO AFTER FIRST CARCINOGEN DOSE (STUDY DURATION: APPROXIMATELY 8 MO), Route [Inhibitor]: INTRARECTAL, Species: RAT, Strain/Sex: F344/MALE, Target Tissue: Type of Lesion: COLON: ADENOCARCINOMA, Dose [Carcinogen]: 2.5 MG 1/WK FOR 2 WK, Promoter: NONE USED
  tumour outcome (control, treated, inhibition, significance): 3/39 (8%), 6/39 (15%), -88%, not significant
Carcinogen: N-METHYL-N-NITROSOUREA, 684-93-5, Dose [Inhibitor]: O.O3 MMOL 3/WK STARTING 12 D THROUGH ABOUT 8 MO AFTER FIRST CARCINOGEN DOSE (STUDY DURATION: APPROXIMATELY 8 MO), Route [Inhibitor]: INTRARECTAL, Species: RAT, Strain/Sex: F344/MALE, Target Tissue: Type of Lesion: COLON: ADENOMA, Dose [Carcinogen]: 2.5 MG 1/WK FOR 2 WK, Promoter: NONE USED
  tumour outcome (control, treated, inhibition, significance): 11/39 (28%), 23/39 (59%), -111%, p<0.05
Carcinogen: N-METHYL-N-NITROSOUREA, 684-93-5, Dose [Inhibitor]: O.O3 MMOL 3/WK STARTING 15 D PRIOR TO THROUGH ABOUT 8 MO AFTER FIRST CARCINOGEN DOSE (STUDY DURATION: APPROXIMATELY 8 MO, Route [Inhibitor]: INTRARECTAL, Species: RAT, Strain/Sex: F344/MALE, Target Tissue: Type of Lesion: COLON: ADENOCARCINOMA, Dose [Carcinogen]: 2.5 MG 1/WK FOR 2 WK, Promoter: NONE USED
  tumour outcome (control, treated, inhibition, significance): 3/39 (8%), 5/39 (13%), -63%, not significant
Carcinogen: N-METHYL-N-NITROSOUREA, 684-93-5, Dose [Inhibitor]: O.O3 MMOL 3/WK STARTING 15 D PRIOR TO THROUGH ABOUT 8 MO AFTER FIRST CARCINOGEN DOSE (STUDY DURATION: APPROXIMATELY 8 MO, Route [Inhibitor]: INTRARECTAL, Species: RAT, Strain/Sex: F344/MALE, Target Tissue: Type of Lesion: COLON: ADENOMA, Dose [Carcinogen]: 2.5 MG 1/WK FOR 2 WK, Promoter: NONE USED
  tumour outcome (control, treated, inhibition, significance): 11/39 (28%), 14/39 (36%), -29%, not significant
Carcinogen: N-METHYL-N-NITROSUREA, 684-93-5, Dose [Inhibitor]: 0, 782 MG/KG OF CASEIN BASED AIN-76A DIET FOR DURATION OF STUDY BEGINNING 7 D PRIOR TO CARCINOGEN DOSE (STUDY DURATION:, Route [Inhibitor]: ORAL, Species: RAT, Strain/Sex: F344/FEMALE, Target Tissue: Type of Lesion: MAMMARY GLAND: TUMOR, Dose [Carcinogen]: 45 MG/KG BW ONCE AT 50 D OF AGE, Promoter: NONE USED
  tumour outcome (control, treated, inhibition, significance): 18/25 (72%), 21/25 (84%), -17%, not significant
Carcinogen: N-NITROSOBIS(2-OXOPROPLYL)AMINE [60599-38-4], DL-ETHIONINE [67-21-0], L-METHIONINE [63-68-3], Carcinogen: N-NITROSOBIS(2-OXOPROPLYL)AMINE [60599-38-4], DL-ETHIONINE [67-21-0], L-METHIONINE [63-68-3], Dose [Inhibitor]: 0, 0.0015% IN DIET FOR 55 D BEGINNING ON DAY 50, 1 WK POST LAST CARCINOGEN DOSE (STUDY DURATION: 105 D), Route [Inhibitor]: ORAL, Species: HAMSTER, Target Tissue: Type of Lesion: LIVER: INTRAHEPATIC CHOLANGIOCARCINOMA, Dose [Carcinogen]: 50 MG/KG BOP ONCE ON DAY 0, THEN 20 MG/KG TWICE ON DAYS 18 AND 32, 500 MG/KG DL-ETHIONINE 1X/D FOR 4 D BEGINNING ON DAY, Dose [Carcinogen]: 50 MG/KG BOP ONCE ON DAY 0, THEN 20 MG/KG TWICE ON DAYS 18 AND 32, 500 MG/KG DL-ETHIONINE 1X/D FOR 4 D BEGINNING ON DAY, Promoter: CHOLINE-DEFICIENT DIET
  tumour outcome (control, treated, inhibition, significance): 7/17 (41%), 8/16 (50%), -22%, not significant
Carcinogen: N-NITROSOBIS(2-OXOPROPLYL)AMINE [60599-38-4], DL-ETHIONINE [67-21-0], L-METHIONINE [63-68-3], Carcinogen: N-NITROSOBIS(2-OXOPROPLYL)AMINE [60599-38-4], DL-ETHIONINE [67-21-0], L-METHIONINE [63-68-3], Dose [Inhibitor]: 0, 0.0015% IN DIET FOR 55 D BEGINNING ON DAY 50, 1 WK POST LAST CARCINOGEN DOSE (STUDY DURATION: 105 D), Route [Inhibitor]: ORAL, Species: HAMSTER, Target Tissue: Type of Lesion: PANCREATIC DUCT, CARCINOMA, Dose [Carcinogen]: 50 MG/KG BOP ONCE ON DAY 0, THEN 20 MG/KG TWICE ON DAYS 18 AND 32, 500 MG/KG DL-ETHIONINE 1X/D FOR 4 D BEGINNING ON DAY, Dose [Carcinogen]: 50 MG/KG BOP ONCE ON DAY 0, THEN 20 MG/KG TWICE ON DAYS 18 AND 32, 500 MG/KG DL-ETHIONINE 1X/D FOR 4 D BEGINNING ON DAY, Promoter: CHOLINE-DEFICIENT DIET
  tumour outcome (control, treated, inhibition, significance): 17/17 (100%), 15/16 (94%), 6%, not significant
Carcinogen: N-NITROSOBIS(2-OXOPROPLYL)AMINE [60599-38-4], DL-ETHIONINE [67-21-0], L-METHIONINE [63-68-3], Carcinogen: N-NITROSOBIS(2-OXOPROPLYL)AMINE [60599-38-4], DL-ETHIONINE [67-21-0], L-METHIONINE [63-68-3], Dose [Inhibitor]: 0, 0.004% IN DIET FOR 55 D BEGINNING ON DAY 50, 1 WK POST LAST CARCINOGEN DOSE (STUDY DURATION: 105 D), Route [Inhibitor]: ORAL, Species: HAMSTER, Target Tissue: Type of Lesion: LIVER: INTRAHEPATIC CHOLANGIOCARCINOMA, Dose [Carcinogen]: 50 MG/KG BOP ONCE ON DAY 0, THEN 20 MG/KG TWICE ON DAYS 18 AND 32, 500 MG/KG DL-ETHIONINE 1X/D FOR 4 D BEGINNING ON DAY, Dose [Carcinogen]: 50 MG/KG BOP ONCE ON DAY 0, THEN 20 MG/KG TWICE ON DAYS 18 AND 32, 500 MG/KG DL-ETHIONINE 1X/D FOR 4 D BEGINNING ON DAY, Promoter: CHOLINE-DEFICIENT DIET
  tumour outcome (control, treated, inhibition, significance): 7/17 (41%), 13/19 (68%), -68%, not significant
Carcinogen: N-NITROSOBIS(2-OXOPROPLYL)AMINE [60599-38-4], DL-ETHIONINE [67-21-0], L-METHIONINE [63-68-3], Carcinogen: N-NITROSOBIS(2-OXOPROPLYL)AMINE [60599-38-4], DL-ETHIONINE [67-21-0], L-METHIONINE [63-68-3], Dose [Inhibitor]: 0, 0.004% IN DIET FOR 55 D BEGINNING ON DAY 50, 1 WK POST LAST CARCINOGEN DOSE (STUDY DURATION: 105 D), Route [Inhibitor]: ORAL, Species: HAMSTER, Target Tissue: Type of Lesion: PANCREATIC DUCT, CARCINOMA, Dose [Carcinogen]: 50 MG/KG BOP ONCE ON DAY 0, THEN 20 MG/KG TWICE ON DAYS 18 AND 32, 500 MG/KG DL-ETHIONINE 1X/D FOR 4 D BEGINNING ON DAY, Dose [Carcinogen]: 50 MG/KG BOP ONCE ON DAY 0, THEN 20 MG/KG TWICE ON DAYS 18 AND 32, 500 MG/KG DL-ETHIONINE 1X/D FOR 4 D BEGINNING ON DAY, Promoter: CHOLINE-DEFICIENT DIET
  tumour outcome (control, treated, inhibition, significance): 17/17 (100%), 19/19 (100%), 0%, not significant
Carcinogen: N-NITROSOBIS(2-OXOPROPLYL)AMINE [60599-38-4], DL-ETHIONINE [67-21-0], L-METHIONINE [63-68-3], Carcinogen: N-NITROSOBIS(2-OXOPROPLYL)AMINE [60599-38-4], DL-ETHIONINE [67-21-0], L-METHIONINE [63-68-3], Dose [Inhibitor]: 0, 0.01% IN DIET FOR 55 D BEGINNING ON DAY 50, 1 WK POST LAST CARCINOGEN DOSE (STUDY DURATION: 105 D), Route [Inhibitor]: ORAL, Species: HAMSTER, Target Tissue: Type of Lesion: LIVER: INTRAHEPATIC CHOLANGIOCARCINOMA, Dose [Carcinogen]: 50 MG/KG BOP ONCE ON DAY 0, THEN 20 MG/KG TWICE ON DAYS 18 AND 32, 500 MG/KG DL-ETHIONINE 1X/D FOR 4 D BEGINNING ON DAY, Dose [Carcinogen]: 50 MG/KG BOP ONCE ON DAY 0, THEN 20 MG/KG TWICE ON DAYS 18 AND 32, 500 MG/KG DL-ETHIONINE 1X/D FOR 4 D BEGINNING ON DAY, Promoter: CHOLINE-DEFICIENT DIET
  tumour outcome (control, treated, inhibition, significance): 7/17 (41%), 14/17 (82%), -100%, p<0.05
